Results on one compound are retold here after paper PMC2752035 (Bioorganic & medicinal chemistry, 2009).

The structures appear in SMILES notation.

In this assay the target is sarco/endoplasmic reticulum calcium ATPase (SERCA) (Oryctolagus cuniculus, UniProt P04191). In words: SERCA-catalyzed ATP hydrolysis, coupled PK/LDH NADH oxidation assay.
Chain of sarco/endoplasmic reticulum calcium ATPase (SERCA) (P04191 1-994 isoform P04191-2): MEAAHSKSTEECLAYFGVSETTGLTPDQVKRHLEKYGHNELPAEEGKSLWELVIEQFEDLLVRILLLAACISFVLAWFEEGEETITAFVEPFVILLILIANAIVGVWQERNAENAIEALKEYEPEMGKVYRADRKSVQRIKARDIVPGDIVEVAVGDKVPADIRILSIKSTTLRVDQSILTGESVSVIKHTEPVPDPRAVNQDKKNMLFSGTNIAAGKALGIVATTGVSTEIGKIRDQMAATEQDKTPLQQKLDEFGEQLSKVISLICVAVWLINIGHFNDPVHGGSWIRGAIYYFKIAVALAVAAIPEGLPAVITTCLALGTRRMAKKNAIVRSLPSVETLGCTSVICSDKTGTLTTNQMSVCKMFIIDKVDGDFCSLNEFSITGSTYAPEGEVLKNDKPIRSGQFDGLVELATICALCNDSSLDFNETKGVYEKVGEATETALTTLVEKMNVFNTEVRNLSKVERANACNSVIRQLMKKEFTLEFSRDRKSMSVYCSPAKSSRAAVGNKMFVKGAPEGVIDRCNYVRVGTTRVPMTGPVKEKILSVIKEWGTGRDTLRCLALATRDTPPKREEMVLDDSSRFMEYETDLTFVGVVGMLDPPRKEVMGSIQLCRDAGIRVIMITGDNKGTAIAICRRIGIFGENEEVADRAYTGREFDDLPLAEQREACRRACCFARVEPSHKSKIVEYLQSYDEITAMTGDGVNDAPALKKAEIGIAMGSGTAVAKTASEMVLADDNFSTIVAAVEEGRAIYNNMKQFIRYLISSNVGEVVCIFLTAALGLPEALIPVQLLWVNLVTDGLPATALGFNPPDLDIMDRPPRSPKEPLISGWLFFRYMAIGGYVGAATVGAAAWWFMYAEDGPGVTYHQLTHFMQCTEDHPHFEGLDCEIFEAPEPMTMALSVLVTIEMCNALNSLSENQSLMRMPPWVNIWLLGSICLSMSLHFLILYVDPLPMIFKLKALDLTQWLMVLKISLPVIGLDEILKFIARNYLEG

As to `CC(C)(C)OC(=O)NCCCC(=O)Oc1cc(C(C)(C)C)c(OC(=O)CCCNC(=O)OC(C)(C)C)cc1C(C)(C)C` [8a], the “SERCA inhibition (activity in words)” value is “inactive”.
